Non-standard residues stand in square brackets, D forms with d. Residues, ends and D or L forms follow the SMILES beside them. Dip = N[C@H](C(=O)O)C(c1ccccc1)c1ccccc1
Experiments:
SK-OV-3 cells = assay: Cellular uptake by flow cytometry in SK-OV-3 cells; type: cell-based, human; conditions: SK-OV-3, F’-FTC 2 µM, peptide 10 µM, 3 h
Experimental: CCRF-CEM and SK-OV-3 cells were used to measure the cellular uptake of a fluorescent-labeled phosphopeptide (F’-GpYEEI) (2 µM), stavudine (F’-d4T) (2 µM) lamivudine (F’-3TC) (1–2 µM), emtricitabine (F’-FTC) (2 µM), and siRNA (F’-siRNA) (36 nM) with the least toxic concentration for each linear and the cyclic peptide (10 µM). The uptake was measured in the presence and absence of the peptides. The SK-OV-3 (0.5 million) and CCRF-CEM (a million) cells were incubated in each well of 6-well plates with the synthesized peptide and the fluorescent-labeled compound in one well. Another well contained the fluorescent-labeled compound alone for 3 h in an incubator (37 °C in a humidified atmosphere of 5% CO2). […] For more details, please refer back to the cytotoxicity method described above.
The cells were transferred to FACS analysis tubes after being washed with phosphate-buffered saline (PBS). […] Finally, the cells were resuspended in flow cytometry buffer and analyzed by flow cytometry (FACSVerse model, Becton Dickinson, San Jose, CA, USA) using the FITC channel and the BD FACSuite software. […] Finally, the cells were analyzed by using FITC channel […] argon laser for the excitation and the emitted 519 nm fluorescence for detection. […] Results were evaluated to determine whether the peptides are facilitating the fluorescence compound to cross the membrane.

LLC-PK1 cells = assay: In vitro cytotoxicity (MTS) in LLC-PK1 cells; type: cell-based, pig; conditions: LLC-PK1, 10 µM, 24 h and 72 h incubation
Experimental: (§1) SK-OV-3, CCRF-CEM, HEK-293, MDA-MB-468, LLC-PK1, and MES-SA were used to determine the cytotoxicity of the synthesized linear and cyclic peptides. About 5000, 10,000, and 50,000 cells were seeded for SK-OV-3, HEK-293, and CCRF-CEM cells, respectively, in 0.1 mL of medium per well of 96-well plates. […]
(§2) Adhesive cells were detached with 0.05% trypsin/EDTA after 15 min. […] The cell viability was measured by utilizing Multi-Mode Microplate Reader (SpectraMax M5 model, Molecular Devices, San Jose, CA, USA) after adding 20 µL of the MTS reagent to each well and incubating for 3 additional hours. […] The percentage of cell viability was calculated using the following equation:(1) =(Average OD values of samples treated with the compound /Average OD values of no treatment samples )∗100

CCRF-CEM cells = assay: In vitro cytotoxicity (MTS) in CCRF-CEM cells; type: cell-based, human; conditions: 25 µM, MTS, n = 3
Experimental: SK-OV-3, CCRF-CEM, HEK-293, MDA-MB-468, LLC-PK1, and MES-SA were used to determine the cytotoxicity of the synthesized linear and cyclic peptides. About 5000, 10,000, and 50,000 cells were seeded for SK-OV-3, HEK-293, and CCRF-CEM cells, respectively, in 0.1 mL of medium per well of 96-well plates. An appropriate medium was used for each cell line (SK-OV-3: McCoy’s 5A with L-glutamine containing fetal bovine serum (FBS) (10%) and penicillin or streptomycin (1%); CCRF-CEM: RPMI-1640 medium with L-glutamine and sodium bicarbonate containing FBS (10%) and penicillin or streptomycin (1%); MDA-MB-468 cells: DMEM/F12 (1:1) (1×) with L-glutamine and 15 mM HEPES containing FBS (10%) and penicillin or streptomycin (1%); LLC-PK1 cells: Dulbecco’s Modified Eagle’s Medium with 4500 mg/L glucose, L-glutamine and sodium bicarbonate, without sodium pyruvate liquid containing FBS (10%) and penicillin or streptomycin (1%); MES-SA cells: consisting of half SK-OV-3 and half CCRF-CEM media; and HEK-293 cells: Minimum Essential Medium Eagle with Earle’s salts and sodium bicarbonate, without L-glutamine containing FBS (10%) and penicillin or streptomycin (1%)). Then, 20 µL of peptides containing 5% DMSO in water were added to each well.
Adhesive cells were detached with 0.05% trypsin/EDTA after 15 min. The suspended cells were seeded in the medium 24 h prior to the experiment according to the previously reported procedure. The medium was changed before adding the peptides for adherent cells. Each concentration 5, 10, 25, 50, and 166 µM (containing 0.8% DMSO) had triplicate wells to minimize possible errors. […] The cell viability was measured by utilizing Multi-Mode Microplate Reader (SpectraMax M5 model, Molecular Devices, San Jose, CA, USA) after adding 20 µL of the MTS reagent to each well and incubating for 3 additional hours. […] The protocol manager was selected “endpoint” on the spectrophotometer’s software (SoftMax Pro 7). The 96-well plates were inserted inside spectrophotometer, and the data were acquired. The percentage of cell viability was calculated using the following equation:(1) =(Average OD values of samples treated with the compound /Average OD values of no treatment samples )∗100

Plasma stability study = type: in vitro ADME; conditions: 500 µM in 25% human plasma in water, 37 °C
Experimental: The metabolic stability of [DipR]5 was assessed in human plasma by using a high-resolution mass spectrometer (LC-QTOF-MS). To remove the background interference, the data were processed by using a narrower (±0.1 m/z) extracted ion chromatogram (EIC) window. Test compound (500 µM) was incubated in 25% human plasma in water at 37 °C. 50 µL aliquots were taken at different time points (0, 0.5, 1, 2, 3, and 13 h), and the plasma proteins were precipitated by the addition of cold ethanol (50 µL) and incubated for 5 min in ice and water. The samples were centrifuged at 7000 RPM for 5 min, and the supernatant (10 µL) was injected into LC-QTOF-MS (Impact II model, Bruker Daltonik, Bremen, Germany). The samples were analyzed on Waters Xterra MS C18 5 µm 2.10 mm × 50 mm column at a flow rate of 0.3 mL/min using a linear gradient of aqueous ACN in the presence of formic acid (0.1%, v/v) as ion pair reagent. The analytes were quantified by their peak areas of EIC. The percentage digestion of the test compound was calculated relative to the peak areas at 0 min.

MDA-MB-468 cells = assay: In vitro cytotoxicity (MTS) in MDA-MB-468 cells; type: cell-based, human; conditions: MDA-MB-468, 10 µM, 24 h and 72 h incubation
Experimental: as §1, §2

Compound: N=C(N)NCCC[C@@H]1NC(=O)[C@H](C(c2ccccc2)c2ccccc2)NC(=O)[C@H](CCCNC(=N)N)NC(=O)[C@H](C(c2ccccc2)c2ccccc2)NC(=O)[C@H](CCCNC(=N)N)NC(=O)[C@H](C(c2ccccc2)c2ccccc2)NC(=O)[C@H](CCCNC(=N)N)NC(=O)[C@H](C(c2ccccc2)c2ccccc2)NC(=O)[C@H](CCCNC(=N)N)NC(=O)[C@H](C(c2ccccc2)c2ccccc2)NC1=O [[DipR]5] (cyclo([Dip]R[Dip]R[Dip]R[Dip]R[Dip]R))
- increase of cellular uptake of F’-FTC (SK-OV-3 cells): 6 fold
- cytotoxicity (LLC-PK1 cells): no significant cytotoxicity
- reduction of cell proliferation (CCRF-CEM cells; 24 h incubation): 64%
- reduction of cell proliferation (CCRF-CEM cells; 72 h incubation): 84%
- stability in human plasma (Plasma stability study; 0-13 h, LC-QTOF-MS): high stability
- metabolised at 1 h, 500 µM (Plasma stability study; after 1 h, LC-QTOF-MS EIC peak area relative to 0 min, read-out: degradation in human plasma): ~15%
- cytotoxicity (MDA-MB-468 cells): no significant cytotoxicity

Reference: publication PMC8997995, “Amphiphilic Cell-Penetrating Peptides Containing Natural and Unnatural Amino Acids as Drug Delivery Agents” (Cells, 2022)
